Test results: US8207172B2 (Bayer Intellectual Property GmbH, priority 2004, dated 2012)

test system: A431 cells (human epidermoid carcinoma); test: In vitro tumor cell proliferation assay (Cell Titer-Glo luminescent cell viability), A431; format: cell-based; details: A-431, 72 h, 72 hours of drug exposure, ATP luminescence readout, read-out: IC50, anti-proliferative activity (inhibition of cell proliferation)
Source text: In vitro Tumor Cell Proliferation Assay
The tumor cell proliferation assay used to test the compounds of the present invention involves a readout called Cell Titer-Glow® Luminescent Cell Viability Assay developed by Promega® (Cunningham, B A “A Growing Issue: Cell Proliferation Assays, Modern kits ease quantification of cell growth” The Scientist 2001, 15(13), 26, and Crouch, S P et al., “The use of ATP bioluminescence as a measure of cell proliferation and cytotoxicity” Journal of Immunological Methods 1993, 160, 81-88), that measures inhibition of cell proliferation. Generation of a luminescent signal corresponds to the amount of ATP present, which is directly proportional to the number of metabolically active (proliferating) cells.
A431cells (human epidermoid carcinoma, ATCC […]) and BT474 (human breast carcinoma, ATCC […]) were plated at a density of 2.5×10^3 cells/well in 96 well black-clear bottom tissue culture plates in RPMI media with 10% Fetal Bovine Serum and incubated at 37° C. Twenty-four hours later, test compounds are added at a final concentration range from as high […] to as low 64 pM depend on the activities of the tested compounds in serial dilutions at a final DMSO concentration of 0.1%. Cells were incubated for 72 hours at 37° C. in complete growth media after addition of the test compound. After 72 hours of drug exposure, the plates were equilibrated to room temperature for approximately 30 min. Then, using a Promega Cell Titer Glo Luminescent® assay kit, lysis buffer containing 100 microliters of the enzyme luciferase and its substrate, luciferin mixture, was added to each well. The plates were mixed for 2 min on orbital shaker to ensure cell lysis and incubated for 10 min at room temperature to stabilize luminescence signal. The samples were read on VICTOR 2 using Luminescence protocol, and analyzed with Analyze5 software to generate IC50 values.

Row | IC50 | SMILES
1 | ≤ 5 µM | Fc1ccc(Nc2ncnc3sc4c(c23)CCc2nn(CCN3CCNCC3)cc2-4)cc1Cl [Example 20, N-(3-chloro-4-fluorophenyl)-2-(2-piperazin-1-ylethyl)-4,5-dihydro-2H-pyrimido[5′,4′:4,5]thieno[2,3-e]indazol-6-amine]
2 | ≤ 5 µM | OC[C@@H](O)Cn1cc2c(n1)CCc1c-2sc2ncnc(Nc3ccc(F)c(Cl)c3)c12 [Example 43, (S)-3-[6-(3-Chloro-4-fluoro-phenylamino)-4,5-dihydro-10-thia-2,3,7,9-tetraaza-cyclopenta[a]fluoren-2-yl}-propane-1,2-diol]
3 | ≤ 5 µM | CN1CCN(CCn2cc3c(n2)CCc2c-3sc3ncnc(Nc4cccc(Cl)c4)c23)CC1 [Example 47, N-(3-chlorophenyl)-2-[2-(4-methylpiperazin-1-yl)ethyl]-4,5-dihydro-2H-pyrimido[5′,4′:4,5]thieno[2,3-e]indazol-6-amine]
4 | ≤ 50 µM | Fc1cccc(COc2ccc(Nc3ncnc4sc5c(c34)CCc3c-5cnn3CCBr)cc2Cl)c1 [Example 81, 3-(2-bromoethyl)-N-{3-chloro-4-[(3-fluorobenzyl)oxy]phenyl}-4,5-dihydro-3H-pyrimido[5′,4′:4,5]thieno[2,3-e]indazol-6-amine]
5 | ≤ 50 µM | CN1CCN(CCn2cc3c(n2)CCc2c-3sc3ncnc(Nc4ccc(OCc5cscn5)c(Cl)c4)c23)CC1 [Example 347, N-[3-chloro-4-(1,3-thiazol-4-ylmethoxy)phenyl]-2-[2-(4-methylpiperazin-1-yl)ethyl]-4,5-dihydro-2H-pyrimido[5′,4′:4,5]thieno[2,3-e]indazol-6-amine bis(trifluoroacetate)]
6 | ≤ 50 µM | CN1CCN(CCn2cc3c(n2)CCc2c-3sc3ncnc(Nc4ccc(Cc5cccnc5)cc4)c23)CC1 [Example 348, 2-[2-(4-methylpiperazin-1-yl)ethyl]-N-[4-(pyridin-3-ylmethyl)phenyl]-4,5-dihydro-2H-pyrimido[5′,4′:4,5]thieno[2,3-e]indazol-6-amine]
7 | ≤ 5 µM | OC[C@H](O)Cn1cc2c(n1)CCc1c-2sc2ncnc(Nc3ccc(OCc4ccccn4)c(Cl)c3)c12 [Example 350, 3-(6-{[3-chloro-4-(pyridin-2-ylmethoxy)phenyl]amino}-4,5-dihydro-2H-pyrimido[5′,4′:4,5]thieno[2,3-e]indazol-2-yl)propane-1,2-diol]
8 | ≤ 5 µM | OC[C@@H](O)Cn1cc2c(n1)CCc1c-2sc2ncnc(Nc3ccc(OCc4ccccn4)c(Cl)c3)c12 [Example 351, (2S)-3-(6-{[3-chloro-4-(pyridin-2-ylmethoxy)phenyl]amino}-4,5-dihydro-2H-pyrimido[5′,4′:4,5]thieno[2,3-e]indazol-2-yl)propane-1,2-diol]
9 | ≤ 50 µM | Cc1cccc(COc2ccc(Nc3ncnc4sc5c(c34)CCc3nn(C[C@@H](O)CO)cc3-5)cc2Cl)n1 [Example 352, (2R)-3-[6-({3-chloro-4-[(6-methylpyridin-2-yl)methoxy]phenyl}amino)-4,5-dihydro-2H-pyrimido[5′,4′:4,5]thieno[2,3-e]indazol-2-yl]propane-1,2-diol]
10 | ≤ 5 µM | OC[C@H](O)Cn1cc2c(n1)CCc1c-2sc2ncnc(Nc3ccc4c(cnn4Cc4ccccc4)c3)c12 [Example 353, (2R)-3-{6-[(1-benzyl-1H-indazol-5-yl)amino]-4,5-dihydro-2H-pyrimido[5′,4′:4,5]thieno[2,3-e]indazol-2-yl}propane-1,2-diol]
11 | ≤ 5 µM | OC[C@H](O)Cn1cc2c(n1)CCc1c-2sc2ncnc(Nc3ccc4c(cnn4Cc4cccc(F)c4)c3)c12 [Example 354, (2R)-3-(6-{[1-(3-fluorobenzyl)-1H-indazol-5-yl]amino}-4,5-dihydro-2H-pyrimido[5′,4′:4,5]thieno[2,3-e]indazol-2-yl)propane-1,2-diol]
12 | ≤ 5 µM | OC[C@H](O)Cn1cc2c(n1)CCc1c-2sc2ncnc(Nc3ccc(OCc4ccccc4)c(Cl)c3)c12 [Example 355, (2R)-3-(6-{[4-(benzyloxy)-3-chlorophenyl]amino}-4,5-dihydro-2H-pyrimido[5′,4′:4,5]thieno[2,3-e]indazol-2-yl)propane-1,2-diol]
